# In patent US20060205677A1 (XenoPort, Inc., priority 2005, published 2006):
# What was measured:
# [1] = test system: PC3 cells; test: In vitro cytotoxicity (Alamar blue growth inhibition), PC3; format: cell-based, human; details: PC3, 48 h
# Procedure: (§1) The effect of experimental compounds on cancer cell growth and viability was measured in a panel of human cancer cells grown in vitro. All cancer cell lines were obtained from the American […]. Cells were maintained in the following media: TUR, H69AR, Calu-6, ME180, and PC3 cells were grown in RPMI medium containing 4.5 g/L glucose, 10% FBS, 4 mM L-glutamine, and 1 mM sodium pyruvate); and HT29 cells were grown in DMEM with 4.5 g/L glucose, 10% FBS, and 6 mM L-glutamine. All cells were grown at 37° C. in 5% CO2 and passaged bi-weekly.
# (§2) For cytoxicity studies, cells were seeded into 96-well clear-bottom microtiter plates at the following densities: TUR (7,500 cells/well), HT29 (5,000 cells/well), H69AR (10,000 cells/well), Calu-6 (15,000 cells/well), and ME180 (2,500 cells/well). Cells were maintained at 37° C. with 5% CO2 for 24 hours prior to addition of various experimental compounds. Each condition was measured in triplicate. For compounds dissolved in DMSO, the final DMSO concentration in each well and in the non-drug treated control cells was constant and below 1% in all studies. The number of viable cells was determined after 24, 48, and 72 hours using Alamar blue fluorescence. Briefly, Alamar blue (10 mM) was added to each well for 4 hours, and the number of viable cells estimated by measuring the fluorescence of reduced Alamar blue (530 nm excitation, 590 nm emission). To correct for background fluorescence, cells were treated with 100% DMSO to eliminate all viable cells. The effect of drug on cell growth was determined by calculating the fraction of live cells treated with drug compared to untreated cells: (F1drug treated−F1DMSO killed)/(F1untreated−F1DMSO killed).
# [2] = test system: HT29 cells; test: In vitro cytotoxicity (Alamar blue growth inhibition), HT29; format: cell-based, human; details: HT29, 48 h
# Procedure: as §1, §2
# [3] = test system: Calu-6 cells; test: In vitro cytotoxicity (Alamar blue growth inhibition), Calu-6; format: cell-based, human; details: Calu-6, 48 h
# Procedure: as §1, §2
# [4] = test system: H69AR cells; test: In vitro cytotoxicity (Alamar blue growth inhibition), H69AR; format: cell-based, human; details: 48 h
# Procedure: as §1, §2
# [5] = test system: ME180 cells; test: In vitro cytotoxicity (Alamar blue growth inhibition), ME180; format: cell-based, human; details: ME180, 48 h
# Procedure: as §1, §2
# [6] = test system: TUR cells; test: In vitro cytotoxicity (Alamar blue growth inhibition), TUR; format: cell-based, human; details: 48 h
# Procedure: as §1, §2
# [7] = test system: PC3 (Prostate) xenograft; test: In vivo tumor growth inhibition, mouse xenograft, PC3; set-up: species or system nude athymic CD-1 mice; details: 80 mg/kg (2/week), IP
# Procedure: (§3) Tumor xenograft studies were performed using nude athymic CD-1 mice (Charles River Laboratories). Human cancer cells (5×10^6 PC3, 5×10^6 HT29, 10^7 Calu-6, and 5×10^6 ME180) were implanted in the hind flank of nude mice. Tumor growth was measured using calipers and tumor volume calculated using the formula: (width^2×(length/2)). Tumor volume was measured 3 days per week. Animal weight was measured 3 days per week to assess compound toxicity.
# Compounds were tested for in vivo tumor growth inhibition as follows. Animals bearing tumors 100-200 mg were sorted into groups (5-8 animals) with similar average tumor mass per group. Drug doses were administered by intraperitoneal (IP) injection (0.5 mL). Test compounds were dissolved in phosphate buffered saline (PBS) and concentration adjusted for animal weight. Actual drug concentrations in formulated doses were verified by quantitative nitrogen detection. Animals were dosed every 7 days for 21 days in most studies. In several studies, animals were dosed twice weekly (days 0, 4, 7, 10, 14, etc.). Tumor volume and animal weight were measured on days 0, 2, 4, 7, 9, 11, 14, 16, 18, 21, 23, 25, and 28. […] Tumor volume at the end of the study was calculated as a percentage of the tumor volume on day 0. […]
# [8] = test system: ME180 (Cervical) xenograft; test: In vivo tumor growth inhibition, mouse xenograft, ME180; set-up: species or system nude athymic CD-1 mice; details: 100 mg/kg, IP
# Procedure: as §3
# (§4) Compounds were tested for in vivo tumor growth inhibition as follows. Animals bearing tumors 100-200 mg were sorted into groups (5-8 animals) with similar average tumor mass per group. Drug doses were administered by intraperitoneal (IP) injection (0.5 mL). Test compounds were dissolved in phosphate buffered saline (PBS) and concentration adjusted for animal weight. Actual drug concentrations in formulated doses were verified by quantitative nitrogen detection. Animals were dosed every 7 days for 21 days in most studies. In several studies, animals were dosed twice weekly (days 0, 4, 7, 10, 14, etc.). Tumor volume and animal weight were measured on days 0, 2, 4, 7, 9, 11, 14, 16, 18, 21, 23, 25, and 28. At the end of the study, animal blood was removed for analysis of liver and kidney function (BUN, creatine, AST and ALT; analytical measurements performed by Quality Clinical Labs). Tumor volume at the end of the study was calculated as a percentage of the tumor volume on day 0. The percent tumor growth inhibition was obtained from the ratio of the percentage tumor volume increase in drug treated animals to the percentage tumor volume increase in saline treated animals.
# [9] = Determination of maximum tolerated dose (MTD); format: in vivo, nude mice; details: ratio of maximum tolerated dose to minimally effective dose
# Procedure: To determine the maximum tolerated doses for compound (54) relative to clinically used platinum anticancer agents, nude mice were injected with increasing drug doses (0.5 mL, intraperitoneally) on days 0, 7, and 14. […] The therapeutic index of a given drug is defined as the ratio of the maximum tolerated dose to the minimally effective dose.
# [10] = test system: HT29 (Colon) xenograft; test: In vivo tumor growth inhibition, mouse xenograft, HT29; set-up: species or system nude athymic CD-1 mice; details: IP
# Procedure: as §3, §4
# [11] = test system: Calu-6 (Lung) xenograft; test: In vivo tumor growth inhibition, mouse xenograft, Calu-6; set-up: species or system nude athymic CD-1 mice; details: 100 mg/kg, IP
# Procedure: as §3, §4
# [12] = test system: HT29 cells; test: Effect of sugar transport inhibitor (phloridzen) on in vitro cytotoxicity; format: cell-based, human; details: 48 hours
# Procedure: as §1, §2
Structure (SMILES),GI50 [1],GI50 [2],GI50 [3],GI50 [4],GI50 [5],GI50 [6],other results
"O=C(CCC1C(=O)[O][Pt]2([NH]C3CCCCC3[NH]2)[O]C1=O)NC1OC(CO)C(O)C(O)C1O [(42), [1R,2R-Cyclohexanediamine-N,N′][{2-(β-D-Galactopyranos-1-ylamido)ethyl}propanedioato(2-)-O,O′]Platinum (II)]",45 µM,860 µM,131 µM,188 µM,4 µM,22 µM,–
"O=C(CCC1C(=O)[O][Pt]2([NH]C3CCCCC3[NH]2)[O]C1=O)NC1OC(CO)C(O)C(O)C1O [(45), [1R,2R-Cyclohexanediamine-N,N′][{2-(β-D-Mannopyranos-1-ylamido)ethyl}propanedioato(2-)-O,O′]Platinum (II)]",–,–,–,84 µM,–,28 µM,–
"O=C(CCCC1C(=O)[O][Pt]2([NH]C3CCCCC3[NH]2)[O]C1=O)NC1OC(CO)C(O)C(O)C1O [(51), [1R,2R-Cyclohexanediamine-N,N′][{3-(β-D-Galactopyranos-1-ylamido)propyl}propanedioato(2-)-O,O′]Platinum (II)]",84 µM,374 µM,255 µM,286 µM,5 µM,37 µM,–
"N.N.O=C(CCCC1C(=O)[O][Pt][O]C1=O)NCC1OC(O)C(O)C(O)C1O [(60), [Diammine][{3-(α,β-D-Galactopyranos-6-ylamido)propyl}propanedioato(2-)-O,O′]Platinum (II)]",–,–,–,79 µM,–,117 µM,–
"O=C(CCCC1C(=O)[O][Pt]2([NH]C3CCCCC3[NH]2)[O]C1=O)NCC1OC(O)C(O)C(O)C1O [(66), [1R,2R-Cyclohexanediamine-N,N′][{3-(α,β-D-Glucopyranos-6-ylamido)propyl}propanedioato(2-)-O,O′]Platinum (II)]",–,222 µM,163 µM,102 µM,7 µM,15 µM,–
"COC1OC(CNC(=O)CCCC2C(=O)[O][Pt]3([NH]C4CCCCC4[NH]3)[O]C2=O)C(O)C(O)C1O [(67), [1R, 2R-Cyclohexanediamine-N,N′][{3-(Methyl-α-D-Glucopyranos-6-ylamido)propyl}propanedioato(2-)-O,O′]Platinum (II)]",–,234 µM,68 µM,185 µM,5 µM,21 µM,–
"O=C1[O][Pt]2([NH]C3CCCCC3[NH]2)[O]C(=O)C1CCNC(=O)C1OC(O)C(O)C(O)C1O [(74), [1R,2R-Cyclohexanediamine-N,N′][{2-(α,β-D-Glucuron-6-yl-amido)ethyl}propanedioato(2-)-O,O′]Platinum (II)]",–,–,–,53 µM,–,53 µM,–
"O=C1[O][Pt]2([NH]C3CCCCC3[NH]2)[O]C(=O)C1CCNC(=O)C1OC(O)C(O)C(O)C1O [(77), [1R, 2R-Cyclohexanediamine-N,N′][{2-(α,β-D-Galacturon-6-yl-amido)ethyl}propanedioato(2-)-O,O′]Platinum (II)]",–,–,–,38 µM,–,38 µM,–
"COC1OC(C(=O)NCCC2C(=O)[O][Pt]3([NH]C4CCCCC4[NH]3)[O]C2=O)C(O)C(O)C1O [(78), [1R,2R-Cyclohexanediamine-N,N′][{2-(Methyl-β-D-Glucuron-6-yl-amido)ethyl}propanedioato(2-)-O,O′]Platinum (II)]",–,103 µM,–,76 µM,–,15 µM,–
"O=C(CCCC1C(=O)[O][Pt]2([NH]C3CCCCC3[NH]2)[O]C1=O)NC1C(O)OC(CO)C(O)C1O [(79), [1R,2R-Cyclohexanediamine-N,N′][{3-(α,β-D-Glucopyranos-2-yl-amido)propyl}propanedioato(2-)-O,O′]Platinum (II)]",67 µM,124 µM,–,55 µM,–,15 µM,Percent Tumor Growth Inhibition PC3 (Prostate) [7]: 48%
"N.N.O=C(CCCC1C(=O)[O][Pt][O]C1=O)NC1C(O)OC(CO)C(O)C1O [(82), [Diammine][{3-(α,β-D-Glucopyranos-2-yl-amido)propyl}propanedioato(2-)-O,O′]Platinum (II)]",133 µM,800 µM,300 µM,112 µM,11 µM,142 µM,–
"O=C1[O][Pt]2([NH]C3CCCCC3[NH]2)[O]C(=O)C1CCCC1OC(CO)C(O)C(O)C1O [(83), [1R, 2R-Cyclohexanediamine-N,N′][{3-(α,β-D-Mannopyranos-1-yl)propyl}propanedioato(2-)-O,O′]Platinum (II)]",100 µM,117 µM,155 µM,163 µM,10 µM,41 µM,–
"NC1CCCCC1N.O=C1[O][Pt][O]C(=O)C1CCC1OC(CO)C(O)C(O)C1O [(88), [1R,2R-Cyclohexanediamine-N,N′][{2-(α,β-D-Glucopyranos-1-yl)ethyl}propanedioato(2-)-O,O′]Platinum (II)]",112 µM,226 µM,260 µM,98 µM,13 µM,31 µM,–
O=C1[O][Pt]2([NH]C3CCCCC3[NH]2)[O]C(=O)C1CCC1OC(CO)C(O)C(O)C1O (stereo not shown) [(93)],69 µM,178 µM,139 µM,78 µM,7 µM,20 µM,–
"N.N.O=C([O-])C1(C(=O)[O-])CCC1.[Pt+2] [Carboplatin, reference compound]",290 µM,515 µM,712 µM,94 µM,64 µM,123 µM,Percent Tumor Growth Inhibition ME180 (Cervical) [8]: 25%; Therapeutic Index MTD/Min Eff [9]: 2.3; Percent Tumor Growth Inhibition HT29 (Colon) ([10]; 100 mg/kg): 47%; Percent Tumor Growth Inhibition Calu-6 (Lung) [11]: 56%
"N.N.[Cl][Pt][Cl] [Cisplatin, reference compound]",31 µM,30 µM,149 µM,4 µM,1 µM,10 µM,"GI50 ([12]; HT29, 0 mM phloridzen, read-out: GI50 of Uptake in HT29 Cells, 0 mM Phoridzen): 261 µM; GI50 ([12]; HT29, 0.2 mM phloridzen, read-out: GI50 of Uptake in HT29 Cells, 0.2 mM Phoridzen): 194 µM; GI50 ([12]; HT29, 0.5 mM phloridzen, read-out: GI50 of Uptake in HT29 Cells, 0.5 mM Phoridzen): 192 µM; GI50 ([12]; HT29, 1.0 mM phloridzen, read-out: GI50 of Uptake in HT29 Cells, 1.0 mM Phoridzen): 254 µM; Percent Tumor Growth Inhibition HT29 (Colon) ([10]; 2 mg/kg): 69%"
"O=C1[O][Pt]2([NH][C@@H]3CCCC[C@H]3[NH]2)[O]C1=O [Oxaliplatin, oxaliplatin, reference compound]",113 µM,133 µM,52 µM,60 µM,28 µM,42 µM,Therapeutic Index MTD/Min Eff [9]: 2.0; Percent Tumor Growth Inhibition HT29 (Colon) ([10]; 5 mg/kg): 40%
